The source of these data is patent US20070167408A1, “NOVEL ALKYL PHOSPHOLIPID DERIVATIVES WITH REDUCED CYTOTOXICITY AND USES THEREOF” (ZENTARIS GmbH, priority 2005, published 2007).

Structures are written as SMILES. Converted amounts (≈) assume the structure as drawn. Where two headings read alike, the source gives them in different places. Where only a bound is given, the exact number is not on record here.

In general, MIC refers to the least concentration at which growth counts as inhibited.

Assay [1] has as its system RKOp21 (human colon adenocarcinoma) cells. In words: XTT cytotoxicity assay, RKOp21 cells. The conditions noted are these: for RKOp21 % INH [31.6 μM] / inhibition at 31.6 µM: second set of experiments; for IC50: XTT, 48 h exposure, read-out: RKOp21 [IC50 (μM)]; for inhibition at 31.6 µM: read-out: RKOp21 % INH [31.6 μM]. The class given is cell-based. On the procedure:
(§1) Cytotoxicity of selected compounds of the invention against different mammalian cell lines was assessed as follows.
(§2) Human tumor cell lines KB/HeLa (ATCC CCL17, human cervix carcinoma), PC3 (ATCC CRL1435, human prostate carcinoma) and RKOp21 (human colon adenocarcinoma; Schmidt et al., Oncogene 2000, 19: 2423-2429) cells were used in an automated XTT screening assay for the assessment of cytotoxicity.
(§3) The XTT assay quantifies cellular metabolic activity which correlates with cell viability and cell number. Test compounds (selected compounds of the invention and known substances as controls) are dissolved in culture medium at 600 μM and added to the tumor cells in 10 different concentrations in a semi-logarithmic fashion starting from 100 μM as highest concentration.
(§4) In a second set of experiments employing PC3, RKOp21 and SKOV-3 (ATCC HTB-77, human ovary adenocarcinoma) cells, test and reference compounds were dissolved in 70% Ethanol/30% H2O in a stock concentration of 10 mM and diluted in cell culture medium to yield either 31.6 μM (PC3 and RKOp21) or 100 μM (SKOV-3) final concentration.
(§5) 48 h later cellular metabolic activity of cells treated with test compounds is quantified by measurement of the absorbance at 490 nm (conversion of XTT dye) in comparison to untreated control cells (100% viability).
(§6) KB/HeLa and PC3 cells were cultivated in RPMI 1640 medium (Gibco, Cat. No. 42401-018) supplemented with 10% heat inactivated fetal calf serum (FCS, Biochrom AG, Cat. No. S0115), 2 mM L-glutamine (Gibco, Cat. No. 25030-24) and 2% Penicillin-Streptomycin (PenStrep, Gibco, Cat. No. 15140-122). RKOp21 cells were grown in DMEM+GlutaMAXTM-I medium (Gibco, Cat. No. 61965-026) supplemented with 10% heat inactivated fetal calf serum (FCS, Biochrom AG, Cat. No. S0115), 2 mM L-glutamine (Gibco, Cat. No. 25030-24), 2% Penicillin-Streptomycin (PenStrep, Gibco, Cat. No. 15140-122) and 1% 1M HEPES (Gibco, Cat. No. 15630-056). All cells were cultured at 37° C. in 5% CO2 humidified air.
(§7) On the first day of the experiment cells were harvested from exponential phase cultures by trypsination, counted and plated into 96 well flat-bottom micro titer plates depending on the cell line as listed below:
(§8) After a 24 h recovery to allow the cells to resume exponential growth, the test compounds were diluted immediately prior to use and transferred in 25 μl volume to the wells.
(§9) Following 2 days of continuous drug exposure 50 μl of freshly prepared XTT-PMS solution {2% 0.386 mg/ml PMS (N-Methyl Dibenzopyrazine Methylsulphate; Sigma, Cat. No. P9625) in PBS+98% 1 mg/ml XTT (Sodium 2,3-bis(2-methoxy-4-nitro-5-sulfophenyl)-5-[(phenylamino)carbonyl]-2H-Tetrazolium; Serva, Cat. No. 38450) in RPMI 1640 medium without phenol red} was added to the wells. To measure the proportion of living cells, the cells were incubated for 3 h with XTT-PMS reagent at 37° C., 5% CO2, humidified atmosphere allowing to form the formazan salt. The amount of soluble formazan salt produced by cellular reduction of XTT is quantified by measuring the absorbance at 490 nm using the Biomek® 2000 ELISA plate reader. %-inhibition (cytotoxicity) of each test compound was calculated in relation to untreated control cells. Inhibition curves were generated and IC50 values calculated by using GraphPad Prism.

The test system of assay [2] is PC3 (human prostate carcinoma) cells. In words: XTT cytotoxicity assay, PC3 cells. The conditions noted are these: for PC3 % INH [31.6 μM] / inhibition at 31.6 µM: second set of experiments; for IC50: XTT, 48 h exposure, read-out: PC3 [IC50 (μM)]; for inhibition at 31.6 µM: read-out: PC3 % INH [31.6 μM]. The format is cell-based. As for the experimental part:
as §1, §2, §3, §4, §5, §6, §7, §8, §9

Assay [3] has as its system SKOV-3 (human ovary adenocarcinoma) cells. In words: XTT cytotoxicity assay, SKOV-3 cells. The format is cell-based. The following applies: for SKOV-3 % INH [100 μM]: second set of experiments; for inhibition at 100 µM: Homo sapiens, SK-OV-3, second set of experiments, read-out: SKOV-3 % INH [100 μM]. As for the experimental part:
On the first day of the experiment cells were harvested from exponential phase cultures by trypsination, counted and plated into 96 well flat-bottom micro titer plates depending on the cell line as listed below: [table] After a 24 h recovery to allow the cells to resume exponential growth, the test compounds were diluted immediately prior to use and transferred in 25 μl volume to the wells. Following 2 days of continuous drug exposure 50 μl of freshly prepared XTT-PMS solution {2% 0.386 mg/ml PMS (N-Methyl Dibenzopyrazine Methylsulphate; Sigma, Cat. No. […] Serva, Cat. No. 38450) in RPMI 1640 medium without phenol red} was added to the wells. To measure the proportion of living cells, the cells were incubated for 3 h with XTT-PMS reagent at 37° C., 5% CO2, humidified atmosphere allowing to form the formazan salt. […] Inhibition curves were generated and IC50 values calculated by using GraphPad Prism.
In general terms: Tetrazolium assays rely on reduction of a dye to a coloured formazan, in cell work by metabolically active cells.

Assay [4] deals with KB/HeLa (human cervix carcinoma) cells. In words: XTT cytotoxicity assay, KB/HeLa cells. The class given is cell-based. The conditions noted are these: XTT, 48 h exposure, read-out: KB/HELA [IC50 (μM)]. On the procedure:
as §1, §2, §3, §5, §6, §7, §8, §9

Assay [5] deals with PC3, RKOp21 and SKOV-3 cell lines. In words: XTT cytotoxicity assay, mean over all three cell lines. The following applies: mean value over all three cell lines. The format is cell-based, human. As for the experimental part: Following 2 days of continuous drug exposure 50 μl of freshly prepared XTT-PMS solution {2% 0.386 mg/ml PMS (N-Methyl Dibenzopyrazine Methylsulphate; Sigma, Cat. No. […] Serva, Cat. No. 38450) in RPMI 1640 medium without phenol red} was added to the wells. To measure the proportion of living cells, the cells were incubated for 3 h with XTT-PMS reagent at 37° C., 5% CO2, humidified atmosphere allowing to form the formazan salt. […] Inhibition curves were generated and IC50 values calculated by using GraphPad Prism. In the following table 7 cytotoxicity results (% inhibition of cell growth) obtained in the second set of experiments for selected compounds of the invention are presented in comparison to examples of the prior art (perifosine, miltefosine). The results presented are individual values for the respective cell line as well as the mean value over all three cell lines tested.

Assay [6] has as its system Moraxella catarrhalis DMS 11994 (ATCC 43617). In words: Anti-bacterial bouillon microdilution assay (MIC), bacterium D. The conditions noted are these: ATCC43617, 24 h. The format is cell-based. As for the experimental part: Selected compounds of the invention were tested in a bouillon microdilution assay method according to the DIN 58940 (www.din.de) guidelines for determination of susceptibility of bacterial strains with regard to cell growth inhibition. The assay method quantifies bacterial cell growth which corresponds to the turbidity of the liquid culture medium by photometric measurement carried out at 595 nm.
The method of MIC determination was performed according to DIN 58940-5. The volumina were adapted according to the microdilution method as described in DIN 58940-7 guideline.
Dependent on water solubility, compounds of the invention were dissolved either in water or ethanol in a concentration of 10 mg/ml. Subsequently, the stock was further diluted in water to a concentration of 512 μg/ml. The following serial dilutions (factor 2) were performed in water resulting in the following […] testing concentrations: 256 μg/ml, 128 μg/ml, 64 μg/ml, 32 μg/ml, 16 μg/ml, 8 μg/ml, 4 μg/ml, 2 μg/ml, 1 μg/ml, 0.5 μg/ml, 0.25 μg/ml and 0.125 μg/ml. Diluted compounds of the invention were transferred in 100 μl volume to the microtiter plate wells.
Pre-cultures of bacteria were grown in appropriate liquid media (refer to ATCC webpage, www.atcc.org) and afterwards were inoculated in corresponding liquid medium. 100 μl of the inoculums [adjusted to an amount of app. 1×10^6 microorganisms per ml (range of 10^5-10^8 microorganisms per ml)] were added to each of the testing compound concentrations and cultivated under the appropriate conditions.
Before and after incubation, bacterial growth was determined by photometric analysis against a positive control containing growing bacteria without compound and a sterile/negative control containing only the medium.
For orientation: Broth dilution looks for growth in wells or tubes with falling amounts of substance.

With `CCCCCCCCC=CCCCCCCCCOP(=O)(O)OCCN1CCCCC1` [Compound 19], in assay [1], the “RKOp21 % INH [31.6 μM]” value came out at 53.4%. The IC50 in assay [1], in assay [2] and in assay [4] was over 100 µM throughout. Moreover, the “PC3 % INH [31.6 μM]” value in assay [2] came to 16.2%. In addition, in assay [3], the “SKOV-3 % INH [100 μM]” value is reported as 26.9%. Also, the “Mean % INH” value in assay [5] is on record as 32.2%.
Turning to `CCCCCCCCCCOCCOCCOP(=O)([O-])OCC[N+]1(C)CCCCC1` [Compound 20], in assay [1], the “RKOp21 % INH [31.6 μM]” value is −12.4%. In addition, the IC50 in assay [1], in assay [2] and in assay [4] was over 100 µM each time. The “PC3 % INH [31.6 μM]” value in assay [2] was 13.4%. Moreover, the “SKOV-3 % INH [100 μM]” value in assay [3] is on record as −6.1%. Moreover, the “Mean % INH” value in assay [5] was −1.7%.
With `CCCCCCCCCCCCCCCCCCOP(=O)(O)OCCn1ccnc1` [Compound 67], the IC50 in assay [1] (Homo sapiens) is over 100 µM; in assay [2] (Homo sapiens, PC-3), over 100 µM; in assay [4] (Homo sapiens, HeLa), over 100 µM. In addition, the MIC in assay [6] is 8 µg/mL (≈ 18 µM).
Take `CCCCCCCCC#CCCCCCCCCOP(=O)([O-])OCC[N+](C)(C)C` [Compound 144]: the inhibition at 31.6 µM is 48% in assay [1] (Homo sapiens) and 14% in assay [2] (Homo sapiens, PC-3). Also, the IC50 is 51.1 µM in assay [1] (Homo sapiens); over 100 µM in assay [2] (Homo sapiens, PC-3); over 100 µM in assay [4] (Homo sapiens, HeLa). Moreover, the inhibition at 100 µM in assay [3] is -3%. For the same compound, the “Mean % INH” value in assay [5] amounted to 19.7%.
In the case of `CCCCCCCCCCCCCCCCOP(=O)([O-])OCC[N+]1(C)CCCC(C(=O)OCC)C1` (centres unmarked) [Compound 260], the inhibition at 31.6 µM was 40.5% in assay [1] (Homo sapiens) and 45.2% in assay [2] (Homo sapiens, PC-3). Moreover, the inhibition at 100 µM in assay [3] worked out at 56.1%. Also, in assay [5], the “Mean % INH” value came out at 47.3%. It took 8 µg/mL (≈ 15.4 µM) to inhibit growth in assay [6] (MIC).
For `CCCCCCCCCCCCCCCCOP(=O)([O-])OCCCC[N+](C)(C)C` [Compound 314], in assay [1], the “RKOp21 % INH [31.6 μM]” value was 10.6%. Moreover, the “PC3 % INH [31.6 μM]” value in assay [2] worked out at 51.6%. In addition, the “SKOV-3 % INH [100 μM]” value in assay [3] is on record as 33.2%. Moreover, in assay [5], the “Mean % INH” value is 31.8%.
Take `CCCCCCCCCCCCCCCCCCOP(=O)([O-])OC1CC[N+](C)(C)CC1` [perifosine, octadecyl-1,1-dimethyl-piperidino-4-yl-phosphate, reference compound]: the inhibition at 31.6 µM in assay [1] (Homo sapiens) worked out at 63%; in assay [2] (Homo sapiens, PC-3), 80.2%. In addition, the inhibition at 100 µM in assay [3] was found to be 90.7%. In addition, the “Mean % INH” value in assay [5] was determined as 78.0%.
